Laboratory results published in patent publication US20250296959A1, “B7-H3 TARGETING PEPTIDES AND CONSTRUCTS THEREOF” (Mariana Oncology Inc., priority 2024, published 2025).
Starred links: 1 amine or outer side, 2 acyl side, 3 side chain; linkers in the order of their positions; H or OH if unused. Positions of bridges follow the written chain, without caps; N, C: chain ends. Non-standard residues stand in square brackets, D forms with d. Residues, ends and D or L forms follow the SMILES beside them. Groups on a side chain read outwards from the residue. ξ: configuration not given here. *: point of attachment. Ala(piperidin-4-yl) = O=C([C@H](CC1CCN([*:3])CC1)N[*:1])[*:2]; Phe(3-CH2NH2) = O=C([C@H](Cc1cccc(CN[*:3])c1)N[*:1])[*:2]; DOTA = O=C(O)CN1CCN(CC(=O)O)CCN(CC(=O)*)CCN(CC(=O)O)CC1; Phe(4-COOH) = N[C@@H](Cc1ccc(C(=O)O)cc1)C(=O)O; Trp(5-F) = N[C@@H](Cc1c[nH]c2ccc(F)cc12)C(=O)O; Trp(7-aza) = N[C@@H](Cc1c[nH]c2ncccc12)C(=O)O; Phe(4-F) = N[C@@H](Cc1ccc(F)cc1)C(=O)O; γGlu = O=C(O)[C@H](CCC(=O)[*:2])N[*:1]; 1Nal = N[C@@H](Cc1cccc2ccccc12)C(=O)O; Ala(4-THP) = N[C@@H](CC1CCOCC1)C(=O)O; hTyr = N[C@@H](CCc1ccc(O)cc1)C(=O)O; Val(3-OH) = CC(C)(O)[C@H](N)C(=O)O; aIle = CC[C@@H](C)[C@H](N)C(=O)O; Cha = N[C@@H](CC1CCCCC1)C(=O)O; Chg = N[C@H](C(=O)O)C1CCCCC1; Tle = CC(C)(C)[C@H](N)C(=O)O; hLeu = CC(C)CC[C@H](N)C(=O)O; NMeS = CN[C@@H](CO)C(=O)O; Nle = CCCC[C@H](N)C(=O)O; ξF = NC(Cc1ccccc1)C(=O)O; Aze = O=C(O)[C@@H]1CCN1; PEG1 = NCCOCCC(=O)O

Target: T1, human 4lg B7-H3 (Homo sapiens, UniProt Q5ZPR3)
T1 sequence (Q5ZPR3 29-534): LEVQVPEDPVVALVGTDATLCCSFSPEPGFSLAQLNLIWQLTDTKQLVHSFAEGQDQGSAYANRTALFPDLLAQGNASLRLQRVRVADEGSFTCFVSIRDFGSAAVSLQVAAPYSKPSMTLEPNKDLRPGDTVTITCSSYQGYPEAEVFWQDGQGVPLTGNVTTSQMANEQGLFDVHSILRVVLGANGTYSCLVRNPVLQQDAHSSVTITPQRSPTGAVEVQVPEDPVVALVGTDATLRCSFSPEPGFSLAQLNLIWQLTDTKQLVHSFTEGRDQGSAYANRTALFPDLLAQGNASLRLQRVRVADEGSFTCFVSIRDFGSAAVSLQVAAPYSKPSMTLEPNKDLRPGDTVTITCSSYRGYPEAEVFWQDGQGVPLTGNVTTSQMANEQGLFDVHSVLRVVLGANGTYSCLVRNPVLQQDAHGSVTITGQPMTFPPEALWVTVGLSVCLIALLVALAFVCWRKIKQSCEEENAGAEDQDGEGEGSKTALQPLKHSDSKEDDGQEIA
Assay: Affinity determination by surface plasmon resonance (SPR) to 4Ig B7-H3
Conditions: SPR KD—25° C., 4Ig B7-H3; 25° C. flow cell temperature

Row | Kd | Structure (SMILES)
1 | 1 to 10 nM | CC(=O)N[C@@H](CCC(C)C)C(=O)N[C@@H](Cc1ccc(O)cc1)C(=O)N[C@H]1CSSC[C@@H](C(=O)N[C@@H](Cc2cccc3ccccc23)C(=O)NC(Cc2ccccc2)C(=O)N2CCC[C@H]2C(=O)N[C@H](CCCCNC(=O)CC[C@H](NC(=O)CC[C@H](NC(=O)CC[C@H](NC(=O)CN2CCN(CC(=O)O)CCN(CC(=O)O)CCN(CC(=O)O)CC2)C(=O)O)C(=O)O)C(=O)O)C(N)=O)NC(=O)[C@H](Cc2ccc(O)cc2)NC(=O)[C@H](C(C)C)NC(=O)[C@H](CC(=O)O)NC(=O)[C@H](CC2CCOCC2)NC(=O)[C@H](CCCCN)NC(=O)CNC(=O)[C@H](C(C)(C)C)NC1=O (stereo partly drawn) [compound 276, Ac-hLeu-Y-C-Tbg-G-K-ThpA-D-V-Y-C-1Nal-F-Pro-dLys(gE-gE-gE-DOTA)-CONH2] (Ac-[hLeu]YC[Tle]GK[Ala(4-THP)]DVYC[1Nal][ξF]P[dK]([γGlu-γGlu-γGlu-DOTA])-NH2; disulfide 3-11)
2 | 100 to 300 nM | CC(C)CC[C@H](NC(=O)CC[C@H](NC(=O)CC[C@H](NC(=O)CC[C@H](NC(=O)CN1CCN(CC(=O)O)CCN(CC(=O)O)CCN(CC(=O)O)CC1)C(=O)O)C(=O)O)C(=O)O)C(=O)N[C@@H](Cc1ccc(F)cc1)C(=O)N[C@H]1CSSC[C@@H](C(=O)N[C@@H](Cc2cccc3ccccc23)C(=O)N[C@@H](Cc2ccccc2)C(=O)N2CCC[C@H]2C(N)=O)NC(=O)[C@H](Cc2ccc(O)cc2)NC(=O)[C@H](C(C)C)NC(=O)[C@H](CC(=O)O)NC(=O)[C@H](CC2CCOCC2)NC(=O)[C@H](CC2CCNCC2)NC(=O)CNC(=O)[C@H](C(C)(C)C)NC1=O [compound 272, DOTA-gE-gE-gE-hLeu-4FPhe-C-Tbg-G-PipAla-ThpA-D-V-Y-C-1Nal-F-Pro-CONH2] ({DOTA-γGlu-γGlu-γGlu}-[hLeu][Phe(4-F)]C[Tle]G[Ala(piperidin-4-yl)][Ala(4-THP)]DVYC[1Nal]FP-NH2; disulfide 3-11)

The remaining lines, values behind:

Row | Structure (SMILES) | Kd
3 | CC(=O)N[C@@H](CCC(C)C)C(=O)N[C@@H](Cc1ccc(O)cc1)C(=O)N[C@H]1CSSC[C@@H](C(=O)N[C@@H](Cc2c[nH]c3ccccc23)C(=O)N[C@@H](Cc2ccccc2)C(=O)N[C@H](C(=O)N[C@H](CCCCNC(=O)CN2CCN(CC(=O)O)CCN(CC(=O)O)CCN(CC(=O)O)CC2)C(N)=O)[C@@H](C)O)NC(=O)[C@H](Cc2ccc(O)cc2)NC(=O)[C@H](C(C)C)NC(=O)[C@H](CC(=O)O)NC(=O)[C@H](Cc2ccc(C(=O)O)cc2)NC(=O)[C@H](CCCCN)NC(=O)CNC(=O)[C@H](C(C)(C)C)NC1=O [compound 139, Ac-hLeu-Y-C-Tbg-G-K-4COOHPhe-D-V-Y-C-W-F-Thr-dLys(DOTA)-CONH2] (Ac-[hLeu]YC[Tle]GK[Phe(4-COOH)]DVYCWFT[dK](DOTA)-NH2; disulfide 3-11) | < 1 nM
4 | CC(=O)N[C@@H](CCC(C)C)C(=O)N[C@@H](Cc1ccc(O)cc1)C(=O)N[C@H]1CSSC[C@@H](C(=O)N[C@@H](Cc2c[nH]c3ncccc23)C(=O)N[C@@H](Cc2ccccc2)C(=O)N[C@H](C(=O)N[C@H](CCCCNC(=O)CN2CCN(CC(=O)O)CCN(CC(=O)O)CCN(CC(=O)O)CC2)C(N)=O)[C@@H](C)O)NC(=O)[C@H](Cc2ccc(O)cc2)NC(=O)[C@H](C(C)C)NC(=O)[C@H](CC(=O)O)NC(=O)[C@H](Cc2ccc(O)cc2)NC(=O)[C@H](CCCCN)NC(=O)CNC(=O)[C@H](C(C)C)NC1=O [compound 156, Ac-hLeu-Y-C-V-G-K-Y-D-V-Y-C-7NW-F-Thr-dLys(DOTA)-CONH2] (Ac-[hLeu]YCVGKYDVYC[Trp(7-aza)]FT[dK](DOTA)-NH2; disulfide 3-11) | 10 to 100 nM
5 | CCCC[C@H](NC(C)=O)C(=O)N[C@@H](Cc1ccc(O)cc1)C(=O)N[C@H]1CSSC[C@@H](C(=O)N[C@@H](Cc2c[nH]c3ccccc23)C(=O)N[C@@H](Cc2ccccc2)C(=O)N[C@H](C(=O)N[C@H](CCCCNC(=O)CN2CCN(CC(=O)O)CCN(CC(=O)O)CCN(CC(=O)O)CC2)C(N)=O)[C@@H](C)O)NC(=O)[C@H](Cc2ccc(O)cc2)NC(=O)[C@H](C2CCCCC2)NC(=O)[C@H](CC(=O)O)NC(=O)[C@H](Cc2ccc(O)cc2)NC(=O)[C@H](CCCCN)NC(=O)CNC(=O)[C@H](C(C)C)NC1=O [compound 55, Ac-Nle-Y-C-V-G-K-Y-D-ChG-Y-C-W-F-Thr-dLys(DOTA)-CONH2] (Ac-[Nle]YCVGKYD[Chg]YCWFT[dK](DOTA)-NH2; disulfide 3-11) | 1 to 10 nM
6 | CC[C@H](C)[C@@H]1NC(=O)[C@@H](NC(=O)[C@H](Cc2ccc(O)cc2)NC(=O)[C@H](CCC(C)C)NC(C)=O)CSSC[C@@H](C(=O)N[C@@H](Cc2c[nH]c3ccc(F)cc23)C(=O)N[C@@H](Cc2ccccc2)C(=O)N(C)[C@@H](CO)C(N)=O)NC(=O)[C@H](Cc2ccc(O)cc2)NC(=O)[C@H](C(C)C)NC(=O)[C@H](CC(=O)O)NC(=O)[C@H](CC2CCCCC2)NC(=O)[C@H](CCCCNC(=O)CN2CCN(CC(=O)O)CCN(CC(=O)O)CCN(CC(=O)O)CC2)NC(=O)CNC1=O [compound 232, Ac-hLeu-Y-C-Ile-G-Lys(DOTA)-CHA-D-V-Y-C-5FW-F-NMeSer-CONH2] (Ac-[hLeu]YCIGK(DOTA)[Cha]DVYC[Trp(5-F)]F[NMeS]-NH2; disulfide 3-11) | 10 to 100 nM
7 | CC(=O)N[C@@H](CCC(C)C)C(=O)N[C@@H](Cc1ccc(O)cc1)C(=O)N[C@H]1CSSC[C@@H](C(=O)N[C@@H](Cc2c[nH]c3ccc(F)cc23)C(=O)N[C@@H](Cc2ccccc2)C(=O)N[C@H](C(=O)N[C@H](CCCCNC(=O)CN2CCN(CC(=O)O)CCN(CC(=O)O)CCN(CC(=O)O)CC2)C(N)=O)[C@@H](C)O)NC(=O)[C@H](Cc2ccc(O)cc2)NC(=O)[C@H](C(C)C)NC(=O)[C@H](CC(=O)O)NC(=O)[C@H](CCc2ccc(O)cc2)NC(=O)[C@H](CCCCN)NC(=O)CNC(=O)[C@H](C(C)C)NC1=O [compound 167, Ac-hLeu-Y-C-V-G-K-hTyr-D-V-Y-C-5FW-F-Thr-dLys(DOTA)-CONH2] (Ac-[hLeu]YCVGK[hTyr]DVYC[Trp(5-F)]FT[dK](DOTA)-NH2; disulfide 3-11) | 1 to 10 nM
8 | CC[C@@H](C)[C@@H]1NC(=O)[C@H](CC(=O)O)NC(=O)[C@H](Cc2ccc(O)cc2)NC(=O)[C@H](CCCCN)NC(=O)CNC(=O)[C@H](C(C)C)NC(=O)[C@@H](NC(=O)[C@H](Cc2ccc(O)cc2)NC(=O)[C@H](CCC(C)C)NC(C)=O)CSSC[C@@H](C(=O)N[C@@H](Cc2c[nH]c3ccccc23)C(=O)N[C@@H](Cc2ccccc2)C(=O)N[C@H](C(=O)N[C@H](CCCCNC(=O)CN2CCN(CC(=O)O)CCN(CC(=O)O)CCN(CC(=O)O)CC2)C(N)=O)[C@@H](C)O)NC(=O)[C@H](Cc2ccc(O)cc2)NC1=O [compound 126, Ac-hLeu-Y-C-V-G-K-Y-D-allolle-Y-C-W-F-Thr-dLys(DOTA)-CONH2] (Ac-[hLeu]YCVGKYD[aIle]YCWFT[dK](DOTA)-NH2; disulfide 3-11) | < 1 nM
9 | CC(=O)N[C@@H](CCC(C)C)C(=O)N[C@@H](Cc1ccc(O)cc1)C(=O)N[C@H]1CSSC[C@@H](C(=O)N[C@@H](Cc2c[nH]c3ccc(F)cc23)C(=O)N[C@@H](Cc2ccccc2)C(=O)N2CCC[C@H]2C(=O)O)NC(=O)[C@H](Cc2ccc(O)cc2)NC(=O)[C@H](C(C)C)NC(=O)[C@H](CC(=O)O)NC(=O)[C@H](Cc2cccc(CNC(=O)CN3CCN(CC(=O)O)CCN(CC(=O)O)CCN(CC(=O)O)CC3)c2)NC(=O)[C@H](CCCCN)NC(=O)CNC(=O)[C@H](C(C)C)NC1=O [compound 262, Ac-hLeu-Y-C-V-G-K-MAF(DOTA)-D-V-Y-C-5FW-F-Pro-COOH] (Ac-[hLeu]YCVGK[Phe(3-CH2NH2)](DOTA)DVYC[Trp(5-F)]FP-OH; disulfide 3-11) | 10 to 100 nM

Same assay, conditions: SPR KD—37° C., 4Ig B7-H3; 37° C. flow cell temperature

Row | Kd | Structure (SMILES)
10 | 1 to 10 nM | CC(C)CC[C@H](NC(=O)CCOCCNC(=O)[C@H](CCC(=O)O)NC(=O)CN1CCN(CC(=O)O)CCN(CC(=O)O)CCN(CC(=O)O)CC1)C(=O)N[C@@H](Cc1ccc(O)cc1)C(=O)N[C@H]1CSSC[C@@H](C(=O)N[C@@H](Cc2c[nH]c3ccc(F)cc23)C(=O)N[C@@H](Cc2ccccc2)C(=O)N[C@H](C(N)=O)C(C)(C)O)NC(=O)[C@H](Cc2ccc(O)cc2)NC(=O)[C@H](C(C)C)NC(=O)[C@H](CC(=O)O)NC(=O)[C@H](CC2CCOCC2)NC(=O)[C@H](CCCCN)NC(=O)CNC(=O)[C@H](C(C)(C)C)NC1=O [compound 394, DOTA-Glu-PEG1-hLeu-Y-C-Tbg-G-K-ThpA-D-V-Y-C-5FW-F-hydroxyVal-CONH2] ({DOTA}-E[PEG1][hLeu]YC[Tle]GK[Ala(4-THP)]DVYC[Trp(5-F)]F[Val(3-OH)]-NH2; disulfide 5-13)
11 | 1 to 10 nM | CC(=O)N[C@@H](CCC(C)C)C(=O)N[C@@H](Cc1ccc(O)cc1)C(=O)N[C@H]1CSSC[C@@H](C(=O)N[C@@H](Cc2c[nH]c3ccc(F)cc23)C(=O)N[C@@H](Cc2ccccc2)C(=O)N[C@H](C(=O)N[C@H](CCCCNC(=O)CN2CCN(CC(=O)O)CCN(CC(=O)O)CCN(CC(=O)O)CC2)C(=O)O)C(C)(C)O)NC(=O)[C@H](Cc2ccc(O)cc2)NC(=O)[C@H](C(C)C)NC(=O)[C@H](CC(=O)O)NC(=O)[C@H](CC2CCOCC2)NC(=O)[C@@H]2CCN2C(=O)CNC(=O)[C@H](C(C)(C)C)NC1=O [compound 375, Ac-hLeu-Y-C-Tbg-G-Aze-ThpA-D-V-Y-C-5FW-F-hydroxyVal-dLys(DOTA)-COOH] (Ac-[hLeu]YC[Tle]G[Aze][Ala(4-THP)]DVYC[Trp(5-F)]F[Val(3-OH)][dK](DOTA)-OH; disulfide 3-11)
